Data as given in patent US8871767B2, “2-arylimidazo[1,2-B]pyridazine, 2-phenylimidazo[1,2-A]pyridine, and 2-phenylimidazo[1,2-A]pyrazine derivatives” (Hengrui (USA) Ltd., priority 2010, dated 2014).

Test system: Hedgehog pathway activation (GLi-luciferase reporter) in Shh Light II reporter cells
Assay: Hedgehog pathway activation on Shh Light II reporter cells measured by luciferase activity
Format: cell-based
Conditions: Mus musculus, Shh Light II, hShh activation, read-out: Shh (IC50, inhibition of Hedgehog pathway activation)
Experimental: Hedgehog conditioned media was obtained by transfecting 293H cells with the full length gene encoding human Sonic Hedgehog (hShh) inserted into the pCMV6 expression vector, which contains a neomycin selectable marker and expresses the protein of interest with a C-terminal FLAG affinity tag. After selection in G418 containing media, conditioned media from Hedgehog expressing clones were tested for the ability to activate the hedgehog-responsive GLi-luciferase reporter in the Shh Light II cell line obtained by license from John Hopkins University (Taipale J, et al. Effects of oncogenic mutations in Smoothened and Patched can be reversed by cyclopamine. Nature 406: 1005-1009, 2000).
A test compound library was screened against hShh and 500 nM SAG (a direct agonist of the Smoothened receptor) activated 10T1/2/Smo#3 cells and Shh Light II reporter cells for the ability to block Hedgehog pathway activation. Concurrently, cell viability was measured by utilizing Celltiter-Blue® (Promega, Madison Wis.) viability assay. Active compounds were defined as those that inhibited Hedgehog signaling by greater than 50% with no concurrent loss in cell viability.
Their inhibitory activity against Hedgehog pathway activation on 10T1/2/Smo#3 cells as measured by ALP activity and Shh Light II reporter cells as measured by luciferase activity is shown in Table 1 below. In Table 1, +++ stands for an IC50 value that is less than 0.3 μM, ++ between 0.3 and 3 μM, + between 3 and 30 μM.
Additional data for compounds of the invention is shown below in Table 2. Their inhibitory activities against Hedgehog pathway activation are shown as IC50 values in μM on 10T1/2/Smo#3 cells as measured by ALP activity, or on Shh Light II reporter cells as measured by luciferase activity (hShh activation).

`C[C@@H]1CNCCN1c1ccc2nc(-c3ccc(C(F)(F)F)c(NC(=O)C(C)(C)C)c3)cn2n1` [Example 466, (R)-N-(5-(6-(2-methylpiperazin-1-yl)imidazo[1,2-b]pyridazin-2-yl)-2-(trifluoromethyl)phenyl)pivalamide] showed an IC50 of 2020 nM.
For `Cc1ccc(-c2cn3nc(-c4ccc(C(=O)O)cc4)ccc3n2)cc1NC(=O)C(C)(C)C` [compound 521], the IC50 was over 10000 nM.
With `Cc1ccc(-c2cn3nc(-c4ccc(C(N)=O)nc4)ccc3n2)cc1NC(=O)C(C)(C)C` [compound 537] the IC50 was 734 nM.
In the case of `Cc1ccc(-c2nc3ccc(-c4ccc(C(F)(F)F)nc4)nn3c2C)cc1NC(=O)C(C)(C)C` [Example 339, N-(2-methyl-5-(3-methyl-6-(6-(trifluoromethyl)pyridin-3-yl)imidazo[1,2-b]pyridazin-2-yl)phenyl)pivalamide], the IC50 is reported as 277 nM.
`Cc1ccc(-c2cn3nc(-c4cncc(F)c4)ccc3n2)cc1NC(=O)C(C)(C)C` [Example 407, N-(5-(6-(5-fluoropyridin-3-yl)imidazo[1,2-b]pyridazin-2-yl)-2-methylphenyl)pivalamide] gave an IC50 of 353 nM.
In the case of `CC(C)(C)C(=O)Nc1cc(-c2cn3nc(NC4CCC(O)CC4)ccc3n2)ccc1C(F)(F)F` (centres unmarked) [Example 314, N-(5-(6-(4-hydroxycyclohexylamino)imidazo[1,2-b]pyridazin-2-yl)-2-(trifluoromethyl)phenyl)pivalamide], the IC50 is reported as 346 nM.
`CC(C)(C)C(=O)Nc1cc(-c2cn3nc(-c4cccs4)ccc3n2)ccc1C(F)(F)F` [Example 230, N-(5-(6-(thiophen-2-yl)imidazo[1,2-b]pyridazin-2-yl)-2-(trifluoromethyl)phenyl)pivalamide] gave an IC50 of 1550 nM.
In the case of `Cc1ccc(-c2cn3nc(-c4cccnc4C#N)ccc3n2)cc1NC(=O)C(C)(C)C` [compound 581, N-(5-(6-(2-cyanopyridin-3-yl)imidazo[1,2-b]pyridazin-2-yl)-2-methylphenyl)pivalamide], the IC50 is reported as 82 nM.
`COC(=O)c1csc(-c2cc(-c3cn4nc(-c5cccnc5C(F)(F)F)ccc4n3)ccc2C)n1` [compound 506] was tested, and the IC50 was 1340 nM.
`COc1cc(CNc2ccc3nc(-c4ccc(C)c(NC(=O)C(C)(C)C)c4)cn3n2)cc(OC)c1OC` [compound 587] was tested, and the IC50 was 632 nM.
Compound `COC(=O)c1ccc(CNc2ccc3nc(-c4ccc(C)c(NC(=O)C(C)(C)C)c4)cn3n2)cc1` [compound 592] has an IC50 of 443 nM.
Compound `CCOC(=O)CCCOc1ccc(C(F)(F)F)c(-c2ccc3nc(-c4ccc(C)c(NC(=O)C(C)(C)C)c4)cn3n2)c1` [Example 434, ethyl 4-(3-(2-(4-methyl-3-pivalamidophenyl)imidazo[1,2-b]pyridazin-6-yl)-4-(trifluoromethyl)phenoxy)butanoate] has an IC50 of 353 nM.
`Cc1ccc(-c2cn3nc(-c4ccc(O)nc4)ccc3n2)cc1NC(=O)C(C)(C)C` [Example 404, N-(5-(6-(6-hydroxypyridin-3-yl)imidazo[1,2-b]pyridazin-2-yl)-2-methylphenyl)pivalamide] showed an IC50 of 873 nM.
`Cc1ccc(-c2cn3nc(-c4ccc(C#N)cc4C)ccc3n2)cc1NC(=O)C(C)(C)C` [compound 574] gave an IC50 of 364 nM.
With `Cc1ccc(-c2cn3nc(Cl)ccc3n2)cc1NC(=O)C1(C)CC1` [compound 517] the IC50 was over 10000 nM.
In the case of `CC(C)(C)OC(=O)N1CCN(c2ccc3nc(-c4ccc(C(F)(F)F)c(NC(=O)C(C)(C)C)c4)cn3n2)CC1` [Example 327, tert-butyl 4-(2-(3-pivalamido-4-(trifluoromethyl)phenyl)imidazo[1,2-b]pyridazin-6-yl)piperazine-1-carboxylate], the IC50 is reported as 484 nM.
In the case of `COc1cncc(-c2ccc3nc(-c4ccc(C)c(NC(=O)C(C)(C)C)c4)cn3n2)c1` [Example 403, N-(5-(6-(5-methoxypyridin-3-yl)imidazo[1,2-b]pyridazin-2-yl)-2-methylphenyl)pivalamide], the IC50 is reported as 474 nM.
`Cc1ccc(-c2cn3nc(Cl)ccc3n2)cc1NC(=O)c1cccc(C=CC(=O)NO)c1` [compound 615] showed an IC50 of 2240 nM.
`CCOC(=O)CCCOc1cc(-c2ccc3nc(-c4ccc(C)c(NC(=O)C(C)(C)C)c4)cn3n2)cc(C(F)(F)F)n1` [Example 431, ethyl 4-(4-(2-(4-methyl-3-pivalamidophenyl)imidazo[1,2-b]pyridazin-6-yl)-6-(trifluoromethyl)pyridin-2-yloxy)butanoate] showed an IC50 of 422 nM.
With `CC1CNCCN1c1ccc2nc(-c3ccc(C(F)(F)F)c(NC(=O)C(C)(C)C)c3)cn2n1` (centres unmarked) [Example 329, N-(5-(6-(2-methylpiperazin-1-yl)imidazo[1,2-b]pyridazin-2-yl)-2-(trifluoromethyl)phenyl)pivalamide] the IC50 was 2020 nM.
`Cc1ccc(-c2cn3nc(-c4cccnc4C(F)(F)F)ccc3n2)cc1NS(=O)(=O)c1cccc(C=CC(=O)NO)c1` [compound 626, N-hydroxy-3-(3-(N-(2-methyl-5-(6-(2-(trifluoromethyl)pyridin-3-yl)imidazo[1,2-b]pyridazin-2-yl)phenyl)sulfamoyl)phenyl)acrylamide] was tested, and the IC50 was 2910 nM.
With `COc1ccc2nc(-c3ccc(C)c(NS(=O)(=O)c4cccc(C=CC(=O)NO)c4)c3)cn2n1` [compound 618] the IC50 was 9080 nM.
Compound `Cc1ccc(-c2cn3nc(-c4cccc(C(F)(F)F)n4)ccc3n2)cc1NC(=O)C(C)(C)C` [Example 458, N-(2-methyl-5-(6-(6-(trifluoromethyl)pyridin-2-yl)imidazo[1,2-b]pyridazin-2-yl)phenyl)pivalamide] has an IC50 of 421 nM.
`Cc1ccc(-c2cn3nc(N4CCC(F)(F)CC4)ccc3n2)cc1NC(=O)C(C)(C)C` [Example 282, N-(5-(6-(4,4-difluoropiperidin-1-yl)imidazo[1,2-b]pyridazin-2-yl)-2-methylphenyl)pivalamide] was tested, and the IC50 was 1450 nM.
`Cc1ccc(-c2cn3nc(N4CCC(NCCCCCCC(=O)NO)C4)ccc3n2)cc1NC(=O)C(C)(C)C` (centres unmarked) [Example 419, N-hydroxy-7-(1-(2-(4-methyl-3-pivalamidophenyl)imidazo[1,2-b]pyridazin-6-yl)pyrrolidin-3-ylamino)heptanamide] was tested, and the IC50 was 968 nM.
Compound `Cc1ccc(C2CN3N=C(c4cccnc4C(F)(F)F)C=CC3=N2)cc1NC(=O)C(C)(C)CN` (centres unmarked) [compound 622, 3-amino-2,2-dimethyl-N-(2-methyl-5-(6-(2-(trifluoromethyl)pyridin-3-yl)-2,3-dihydroimidazo[1,2-b]pyridazin-2-yl)phenyl)propanamide] has an IC50 of 534 nM.
`Cc1ccc(-c2cn3nc(-c4ccc(C(=O)O)cc4F)ccc3n2)cc1NC(=O)C(C)(C)C` [compound 523] gave an IC50 of 9630 nM.
With `CNC(=O)c1ccc(-c2ccc3nc(-c4ccc(C)c(NC(=O)C(C)(C)C)c4)cn3n2)cc1` [compound 525] the IC50 was 441 nM.
Compound `CC(C)(C)C(=O)Nc1cc(-c2cn3nc(N4CCCC4CO)ccc3n2)ccc1C(F)(F)F` (centres unmarked) [Example 348, N-(5-(6-(2-(hydroxymethyl)pyrrolidin-1-yl)imidazo[1,2-b]pyridazin-2-yl)-2-(trifluoromethyl)phenyl)pivalamide] has an IC50 of 339 nM.
`Cc1ccc(-c2cn3nc(-c4cccnc4C(F)(F)F)ccc3n2)cc1C(=O)O` [Example 481, 2-methyl-5-(6-(2-(trifluoromethyl)pyridin-3-yl)imidazo[1,2-b]pyridazin-2-yl)benzoic acid] gave an IC50 of over 10000 nM.
Compound `Cc1ccc(-c2cn3nc(-c4ccc(C(N)=NO)cc4)ccc3n2)cc1NC(=O)C(C)(C)C` [compound 546] has an IC50 of 1130 nM.
`COC(=O)CCCCC(=O)Nc1cc(-c2cn3nc(-c4cccnc4C(F)(F)F)ccc3n2)ccc1C` [Example 421, methyl 6-(2-methyl-5-(6-(2-(trifluoromethyl)pyridin-3-yl)imidazo[1,2-b]pyridazin-2-yl)phenylamino)-6-oxohexanoate] was tested, and the IC50 was 3310 nM.
Work on `Cc1ccc(-c2cn3nc(-c4cccnc4C(F)(F)F)ccc3n2)cc1NC(=O)c1cccc(C=CC(=O)NO)c1` [compound 625, 3-(3-(hydroxyamino)-3-oxoprop-1-en-1-yl)-N-(2-methyl-5-(6-(2-(trifluoromethyl)pyridin-3-yl)imidazo[1,2-b]pyridazin-2-yl)phenyl)benzamide] yielded an IC50 of 813 nM.
Compound `Cc1ccc(-c2cn3nc(-c4ccc(C(N)=O)cc4)ccc3n2)cc1NC(=O)C(C)(C)C` [compound 526] has an IC50 of 783 nM.
In the case of `Cc1ccc(-c2cn3nc(-c4cccnc4O)ccc3n2)cc1NC(=O)C(C)(C)C` [Example 406, N-(5-(6-(2-hydroxypyridin-3-yl)imidazo[1,2-b]pyridazin-2-yl)-2-methylphenyl)pivalamide], the IC50 is reported as 2060 nM.
Work on `COc1cccc(-c2ccc3nc(-c4ccc(C(F)(F)F)c(NC(=O)C(C)(C)C)c4)cn3n2)c1` [Example 229, N-(5-(6-(3-methoxyphenyl)imidazo[1,2-b]pyridazin-2-yl)-2-(trifluoromethyl)phenyl)pivalamide] yielded an IC50 of 313 nM.
For `COC(=O)CCCCC(=O)Nc1ccc(-c2ccc3nc(-c4ccc(C)c(NC(=O)C(C)(C)C)c4)cn3n2)c(C(F)(F)F)c1` [compound 510], the IC50 was 379 nM.
For `CC(C)(C)C(=O)Nc1cc(-c2cn3nc(N4CCC[C@@H]4CO)ccc3n2)ccc1C(F)(F)F` [Example 469, (R)-N-(5-(6-(2-(hydroxymethyl)pyrrolidin-1-yl)imidazo[1,2-b]pyridazin-2-yl)-2-(trifluoromethyl)phenyl)pivalamide], the IC50 was 339 nM.
